Laboratory results: ChEMBL document CHEMBL4811298, “Discovery of novel class of histone deacetylase inhibitors as potential anticancer agents” (Bioorg Med Chem, 2021)
In brackets after ≈: the same amount, converted by molar mass. Activity calls are given as the source filed them. The rule behind the calls is not given here.

Assays:
[1] = system: MCF7; assay: Induction of apoptosis in human MCF7 cells assessed as downregulation of c-Myc gene expression at 1 uM measured after 24 hrs whole transcriptome analysis; type: functional, cell-based
[2] = Kinetic aqueous solubility of the compound in 2% DMSO/phosphate buffered saline at 200 uM incubated for 90 mins by UV absorbance based analysis; type: physicochemical; details: read-out: Kinetic_solubility
[3] = Half life in CD-1 mouse liver microsomes at 1 uM measured after 60 mins in presence of NADPH by LC-MS/MS analysis; type: ADME, Microsome
[4] = target: Cytochrome P450 2D6 (Homo sapiens, UniProt P10635); assay: Inhibition of human CYP2D6 expressed in insect supersomes assessed as reduction in AHMC formation using AMMC as substrate measured after 40 mins in presence of NADPH by fluorescence based analysis; type: ADME
Cytochrome P450 2D6, sequence (P10635 whole entry): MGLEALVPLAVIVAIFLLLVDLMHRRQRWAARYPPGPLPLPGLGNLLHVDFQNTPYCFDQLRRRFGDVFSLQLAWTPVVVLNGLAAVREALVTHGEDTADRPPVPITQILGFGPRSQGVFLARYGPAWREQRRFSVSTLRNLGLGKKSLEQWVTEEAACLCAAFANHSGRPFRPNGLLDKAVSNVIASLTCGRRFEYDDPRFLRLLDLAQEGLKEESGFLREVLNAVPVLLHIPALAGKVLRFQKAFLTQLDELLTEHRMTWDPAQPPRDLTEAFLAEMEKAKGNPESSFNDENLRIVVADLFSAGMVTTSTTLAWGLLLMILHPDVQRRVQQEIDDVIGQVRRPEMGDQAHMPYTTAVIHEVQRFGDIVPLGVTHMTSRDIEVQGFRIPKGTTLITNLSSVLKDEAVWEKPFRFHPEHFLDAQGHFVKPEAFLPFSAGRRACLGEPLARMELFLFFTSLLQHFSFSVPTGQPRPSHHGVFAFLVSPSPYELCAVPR

[5] = target: Cytochrome P450 2C9 (Homo sapiens, UniProt P11712); assay: Inhibition of human CYP2C9-1 expressed in insect supersomes assessed as reduction in HFC formation using MFC as substrate measured after 30 mins in presence of NADPH by fluorescence based analysis; type: ADME
Cytochrome P450 2C9, sequence (P11712 whole entry, the tested form may be a part): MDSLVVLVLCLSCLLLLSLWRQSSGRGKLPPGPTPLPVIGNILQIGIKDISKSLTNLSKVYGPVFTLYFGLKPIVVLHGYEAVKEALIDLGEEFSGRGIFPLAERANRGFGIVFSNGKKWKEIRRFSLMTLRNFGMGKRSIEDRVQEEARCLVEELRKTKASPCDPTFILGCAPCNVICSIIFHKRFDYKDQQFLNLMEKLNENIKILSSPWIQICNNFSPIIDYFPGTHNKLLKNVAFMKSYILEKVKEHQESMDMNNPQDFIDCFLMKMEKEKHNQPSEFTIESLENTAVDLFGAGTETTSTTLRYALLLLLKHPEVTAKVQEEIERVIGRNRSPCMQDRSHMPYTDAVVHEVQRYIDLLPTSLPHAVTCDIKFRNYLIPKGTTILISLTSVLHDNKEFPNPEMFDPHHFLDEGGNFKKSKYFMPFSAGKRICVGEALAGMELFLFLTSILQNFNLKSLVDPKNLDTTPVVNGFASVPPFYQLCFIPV

[6] = target: Histone deacetylase 1 (Homo sapiens, UniProt Q13547); assay: Inhibition of C-terminal FLAG/His-tagged human recombinant HDAC1 (1 to 482 residues) expressed in baculovirus-infected Sf9 cells assessed as reduction in 7-amino-4-methylcoumarin release using fluorogenic HDAC substrate 3 measured every 5 mins by fluorescence based analysis
Histone deacetylase 1, sequence (Q13547 whole entry, the tested form may be a part): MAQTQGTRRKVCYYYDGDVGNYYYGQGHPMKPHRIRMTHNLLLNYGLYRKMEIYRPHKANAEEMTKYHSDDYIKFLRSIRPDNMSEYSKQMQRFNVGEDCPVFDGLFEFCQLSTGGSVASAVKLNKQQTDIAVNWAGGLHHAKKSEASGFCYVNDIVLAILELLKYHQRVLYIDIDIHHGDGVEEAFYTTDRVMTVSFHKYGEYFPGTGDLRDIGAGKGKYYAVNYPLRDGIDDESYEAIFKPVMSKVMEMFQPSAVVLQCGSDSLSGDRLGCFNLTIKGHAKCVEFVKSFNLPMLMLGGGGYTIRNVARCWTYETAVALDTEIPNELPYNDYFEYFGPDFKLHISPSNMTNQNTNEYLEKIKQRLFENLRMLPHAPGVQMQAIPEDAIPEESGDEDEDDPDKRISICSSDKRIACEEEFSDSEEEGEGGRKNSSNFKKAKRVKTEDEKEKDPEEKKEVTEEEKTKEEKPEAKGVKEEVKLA

[7] = target: Histone deacetylase 4 (Homo sapiens, UniProt P56524); assay: Inhibition of N-terminal GST-tagged/C-terminal His-tagged human recombinant HDAC4 (627 to 1084 residues) expressed in baculovirus-infected Sf9 cells assessed as reduction in 7-amino-4-methylcoumarin release measured every 5 mins by fluorescence based analysis
Histone deacetylase 4, sequence (P56524 whole entry, the tested form may be a part): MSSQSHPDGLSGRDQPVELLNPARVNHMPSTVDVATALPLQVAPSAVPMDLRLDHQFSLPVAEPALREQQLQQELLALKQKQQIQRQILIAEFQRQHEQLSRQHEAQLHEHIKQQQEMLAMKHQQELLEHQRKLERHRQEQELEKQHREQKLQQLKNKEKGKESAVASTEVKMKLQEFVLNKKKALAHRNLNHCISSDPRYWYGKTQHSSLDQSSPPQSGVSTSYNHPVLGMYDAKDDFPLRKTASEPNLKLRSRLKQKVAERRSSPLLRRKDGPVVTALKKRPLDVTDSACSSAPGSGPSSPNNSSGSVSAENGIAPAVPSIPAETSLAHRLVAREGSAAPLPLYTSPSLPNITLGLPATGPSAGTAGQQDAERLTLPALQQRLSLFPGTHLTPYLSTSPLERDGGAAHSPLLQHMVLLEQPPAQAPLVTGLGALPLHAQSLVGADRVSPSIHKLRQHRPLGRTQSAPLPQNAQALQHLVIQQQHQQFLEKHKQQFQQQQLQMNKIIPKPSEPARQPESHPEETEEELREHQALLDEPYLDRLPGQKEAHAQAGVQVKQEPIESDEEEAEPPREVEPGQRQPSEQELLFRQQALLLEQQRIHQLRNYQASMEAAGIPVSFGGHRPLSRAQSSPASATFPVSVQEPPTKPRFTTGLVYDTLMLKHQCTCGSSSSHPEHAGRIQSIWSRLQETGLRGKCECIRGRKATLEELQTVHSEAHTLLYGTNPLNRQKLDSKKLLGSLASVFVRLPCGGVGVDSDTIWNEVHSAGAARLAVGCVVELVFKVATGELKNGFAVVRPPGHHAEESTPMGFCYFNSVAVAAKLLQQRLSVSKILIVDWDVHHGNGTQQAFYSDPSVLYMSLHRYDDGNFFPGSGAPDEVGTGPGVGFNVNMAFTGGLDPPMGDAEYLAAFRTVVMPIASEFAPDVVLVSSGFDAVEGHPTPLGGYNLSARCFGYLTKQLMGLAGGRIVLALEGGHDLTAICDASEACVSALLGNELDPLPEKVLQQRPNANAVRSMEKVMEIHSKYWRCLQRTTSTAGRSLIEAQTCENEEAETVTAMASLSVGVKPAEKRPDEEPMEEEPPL

[8] = target: Histone deacetylase 5 (Homo sapiens, UniProt Q9UQL6); assay: Inhibition of N-terminal GST-tagged human recombinant full length HDAC5 expressed in baculovirus-infected Sf9 cells assessed as reduction in 7-amino-4-methylcoumarin release measured every 5 mins by fluorescence based analysis
Histone deacetylase 5, sequence (Q9UQL6 whole entry, the tested form may be a part): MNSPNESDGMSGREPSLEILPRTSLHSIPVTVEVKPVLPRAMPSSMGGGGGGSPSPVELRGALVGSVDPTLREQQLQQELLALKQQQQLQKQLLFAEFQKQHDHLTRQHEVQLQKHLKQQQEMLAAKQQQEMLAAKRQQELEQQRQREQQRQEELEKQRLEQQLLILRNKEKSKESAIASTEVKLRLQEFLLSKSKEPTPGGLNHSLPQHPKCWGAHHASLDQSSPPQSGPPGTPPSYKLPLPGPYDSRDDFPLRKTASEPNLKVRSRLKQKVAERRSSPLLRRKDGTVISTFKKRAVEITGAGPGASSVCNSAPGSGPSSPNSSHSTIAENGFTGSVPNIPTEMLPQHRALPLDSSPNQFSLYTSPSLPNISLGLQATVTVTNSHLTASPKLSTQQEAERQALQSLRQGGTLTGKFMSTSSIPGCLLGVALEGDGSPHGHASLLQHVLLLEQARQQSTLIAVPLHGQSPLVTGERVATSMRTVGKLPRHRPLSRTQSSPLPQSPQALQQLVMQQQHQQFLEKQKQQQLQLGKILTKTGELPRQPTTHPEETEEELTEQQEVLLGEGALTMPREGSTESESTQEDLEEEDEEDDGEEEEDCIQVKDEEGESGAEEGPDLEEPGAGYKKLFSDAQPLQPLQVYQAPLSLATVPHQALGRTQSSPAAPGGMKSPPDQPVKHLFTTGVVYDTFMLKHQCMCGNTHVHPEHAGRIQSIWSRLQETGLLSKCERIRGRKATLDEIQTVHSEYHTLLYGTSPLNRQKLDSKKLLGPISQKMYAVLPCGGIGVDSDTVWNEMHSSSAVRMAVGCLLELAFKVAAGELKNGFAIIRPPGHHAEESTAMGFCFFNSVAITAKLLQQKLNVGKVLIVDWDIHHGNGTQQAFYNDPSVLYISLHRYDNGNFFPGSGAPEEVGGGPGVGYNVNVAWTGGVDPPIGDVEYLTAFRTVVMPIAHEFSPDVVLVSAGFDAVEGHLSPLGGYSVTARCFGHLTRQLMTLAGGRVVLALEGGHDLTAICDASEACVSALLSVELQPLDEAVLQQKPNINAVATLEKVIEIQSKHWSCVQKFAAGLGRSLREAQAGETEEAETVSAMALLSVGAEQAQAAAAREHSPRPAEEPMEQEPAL

[9] = target: Histone deacetylase 9 (Homo sapiens, UniProt Q9UKV0); assay: Inhibition of C-terminal His-tagged human HDAC9 (604 to 1066 residues) expressed in baculovirus-infected Sf9 cells assessed as reduction in 7-amino-4-methylcoumarin release measured every 5 mins by fluorescence based analysis
Histone deacetylase 9, sequence (Q9UKV0 whole entry, the tested form may be a part): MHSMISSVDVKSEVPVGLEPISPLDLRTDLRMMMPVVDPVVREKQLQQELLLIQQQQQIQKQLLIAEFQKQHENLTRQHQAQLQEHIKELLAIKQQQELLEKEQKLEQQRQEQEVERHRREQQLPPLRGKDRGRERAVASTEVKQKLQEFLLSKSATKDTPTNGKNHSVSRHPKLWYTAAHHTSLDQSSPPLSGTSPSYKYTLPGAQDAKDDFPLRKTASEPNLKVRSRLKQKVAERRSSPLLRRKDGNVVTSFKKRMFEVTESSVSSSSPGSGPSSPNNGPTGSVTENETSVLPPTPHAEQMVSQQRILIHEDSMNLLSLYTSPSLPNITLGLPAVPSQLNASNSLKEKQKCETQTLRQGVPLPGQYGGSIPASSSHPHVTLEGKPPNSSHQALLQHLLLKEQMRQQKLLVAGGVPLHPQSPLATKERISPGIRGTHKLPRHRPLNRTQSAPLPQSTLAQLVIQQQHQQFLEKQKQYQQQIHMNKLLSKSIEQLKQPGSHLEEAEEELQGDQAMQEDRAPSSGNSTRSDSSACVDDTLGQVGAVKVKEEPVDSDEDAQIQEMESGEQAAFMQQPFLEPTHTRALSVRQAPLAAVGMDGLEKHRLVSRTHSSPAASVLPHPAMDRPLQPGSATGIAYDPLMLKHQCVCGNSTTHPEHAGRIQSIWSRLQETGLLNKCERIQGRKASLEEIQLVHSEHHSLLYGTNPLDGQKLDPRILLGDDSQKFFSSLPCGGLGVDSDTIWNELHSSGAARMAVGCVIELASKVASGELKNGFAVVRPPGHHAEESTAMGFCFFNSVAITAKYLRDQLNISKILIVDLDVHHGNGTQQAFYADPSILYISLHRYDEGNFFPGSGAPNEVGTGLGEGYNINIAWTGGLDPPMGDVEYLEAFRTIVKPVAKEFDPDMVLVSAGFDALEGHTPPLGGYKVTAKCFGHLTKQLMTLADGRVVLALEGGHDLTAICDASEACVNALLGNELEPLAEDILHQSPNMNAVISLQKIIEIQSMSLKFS

[10] = Downregulation of HDAC3 gene expression in human MCF7 cells at 3 uM incubated for 24 hrs by whole transcriptome analysis relative to control; type: functional
[11] = system: A549; assay: Antiproliferative activity against human A549 cells assessed as reduction in cell viability incubated for 48 hrs by SRB assay; type: functional, cell-based; details: A549, 48 h
[12] = system: MCF7; assay: Induction of apoptosis in human MCF7 cells assessed as downregulation of c-Myc protein expression at 1 to 3 uM measured after 48 hrs western blot analysis; type: functional, cell-based; details: dose 1-3 µM
[13] = system: MCF7; assay: Induction of apoptosis in human MCF7 cells assessed as increase in caspase 3/7 activity at 1 to 3 uM measured after 48 hrs by ELISA; type: functional, cell-based; details: dose 1-3 µM
[14] = system: MCF7; assay: Induction of apoptosis in human MCF7 cells assessed as reduction in Bcl2 gene expression at 3 uM incubated for 24 hrs by whole transcriptome analysis; type: functional, cell-based
[15] = system: MCF7; assay: Induction of apoptosis in human MCF7 cells assessed as reduction in Bcl3 gene expression at 3 uM incubated for 24 hrs by whole transcriptome analysis; type: functional, cell-based
[16] = system: MCF7; assay: Induction of cell cycle arrest in human MCF7 cells assessed downregulation of CDK2 gene expression at 3 uM incubated for 24 hrs by whole transcriptome analysis; type: functional, cell-based
[17] = system: MCF7; assay: Induction of cell cycle arrest in human MCF7 cells assessed downregulation of CDK4 gene expression at 3 uM incubated for 24 hrs by whole transcriptome analysis; type: functional, cell-based
[18] = system: MCF7; assay: Induction of cell cycle arrest in human MCF7 cells assessed downregulation of CDK6 gene expression at 3 uM incubated for 24 hrs by whole transcriptome analysis; type: functional, cell-based
[19] = system: MCF7; assay: Downregulation of SIRT2 gene expression in human MCF7 cells at 3 uM incubated for 24 hrs by whole transcriptome analysis; type: functional, cell-based
[20] = system: MCF7; assay: Induction of cell cycle arrest in human MCF7 cells assessed downregulation of E2F1 gene expression at 3 uM incubated for 24 hrs by whole transcriptome analysis; type: functional, cell-based
[21] = species on record: Homo sapiens; assay: Selectivity ratio of IC50 for inhibition of N-terminal GST-tagged human recombinant full length HDAC5 expressed in baculovirus-infected Sf9 cells to IC50 for inhibition of C-terminal FLAG/His-tagged human recombinant HDAC1 (1 to 482 residues) expressed in baculovirus-infected Sf9 cells
[22] = species on record: Homo sapiens; assay: Selectivity ratio of IC50 for inhibition of N-terminal GST-tagged/C-terminal His-tagged human recombinant HDAC4 (627 to 1084 residues) expressed in baculovirus-infected Sf9 cells to IC50 for inhibition of C-terminal 6XHis-tagged human recombinant full length HDAC2 (1 to 488 residues) expressed in baculovirus-infected Sf9 cells
[23] = species on record: Homo sapiens; assay: Selectivity ratio of IC50 for inhibition of N-terminal GST-tagged human recombinant full length HDAC5 expressed in baculovirus-infected Sf9 cells to IC50 for inhibition of C-terminal 6XHis-tagged human recombinant full length HDAC2 (1 to 488 residues) expressed in baculovirus-infected Sf9 cells
[24] = species on record: Homo sapiens; assay: Selectivity ratio of IC50 for inhibition of C-terminal His-tagged human HDAC9 (604 to 1066 residues) expressed in baculovirus-infected Sf9 cells to IC50 for inhibition of C-terminal 6XHis-tagged human recombinant full length HDAC2 (1 to 488 residues) expressed in baculovirus-infected Sf9 cells

- solubility kinetic at 1.5 h, 200 µM [2]: 36.1 µM (≈ 13.3 µg/mL)
- half-life at 1 µM [3]: 17.6 min
- IC50 [4]: > 10 µM
- IC50 [5]: > 10 µM
- IC50 [6]: 0.55 µM
- IC50 [7]: > 10 µM
- IC50 [8]: > 10 µM
- IC50 [9]: > 10 µM
- IC50 [11]: 0.2 µM
SMILES: N=C(NO)c1ccc2nc(-c3cccc(-c4cn5ccccc5n4)c3)[nH]c2c1
- Activity [1]: Active
- fold change (FC) [10]: 2.2
- Activity [12]: Active
- Activity [13]: Active
- Activity [14]: Active
- Activity [15]: Active
- Activity [16]: Active
- Activity [17]: Active
- Activity [18]: Active
- inhibition [19]: Active
- Activity [20]: Active
- Ratio IC50 [21]: > 44
- Ratio IC50 [22]: > 44
- Ratio IC50 [23]: > 44
- Ratio IC50 [24]: > 44
